Laboratory results published in patent US12558428B2, “Heterobifunctional compounds and their use in treating disease” (Halda Therapeutics OpCo, Inc., priority 2024, dated 2026).

Key:
[1] = target: T1, BRD4-BD1 (Homo sapiens, UniProt O60885); assay: Binding affinity to BRD4-BD1 (bromoKdELECT assay)
T1 construct: made in house; host or cells: T7 phage grown in E. coli host derived from BL21
Protocol: Exemplary compounds were tested for ability to bind to BRD4-BD 1.
Compounds were tested using a bromoKdELECT assay. T7 phage strains displaying bromodomains were grown in parallel in 24-well blocks in an E. coli host derived from the BL21 strain. E. coli were grown to log-phase and infected with T7 phage from a frozen stock (multiplicity of infection=0.4) and incubated with shaking at 32° C. until lysis (90-150 minutes). The lysates were centrifuged (5,000×g) and filtered ([…]) to remove cell debris. […] The liganded beads were blocked with excess biotin and washed with blocking buffer (SeaBlock (Pierce), 1% BSA, 0.05% Tween 20, 1 mM DTT) to remove unbound ligand and to reduce nonspecific phage binding. […] Test compounds were prepared as 1000× stocks in 100% DMSO. Kds were determined using an 11-point 3-fold compound dilution series with one DMSO control point. […] The compounds were then diluted directly into the assays such that the final concentration of DMSO was 0.09%. All reactions performed in polypropylene 384-well plates. Each was a final volume of 0.02 ml. […] The bromodomain concentration in the eluates was measured by qPCR.

[2] = target: T2, BRD4-BD2 (Homo sapiens, UniProt O60885); assay: Binding affinity to BRD4-BD2 (bromoKdELECT assay)
T2 construct: made in house; host or cells: T7 phage grown in E. coli host derived from BL21
Protocol: Exemplary compounds were tested for ability to bind to BRD4-BD2.
Compounds were tested using a bromoKdELECT assay. T7 phage strains displaying bromodomains were grown in parallel in 24-well blocks in an E. coli host derived from the BL21 strain. E. coli were grown to log-phase and infected with T7 phage from a frozen stock (multiplicity of infection=0.4) and incubated with shaking at 32° C. until lysis (90-150 minutes). The lysates were centrifuged (5,000×g) and filtered ([…]) to remove cell debris. Streptavidin-coated magnetic beads were treated with biotinylated small molecule or acetylated peptide ligands for 30 minutes at room temperature to generate affinity resins for bromodomain assays. The liganded beads were blocked with excess biotin and washed with blocking buffer (SeaBlock (Pierce), 1% BSA, 0.05% Tween 20, 1 mM DTT) to remove unbound ligand and to reduce nonspecific phage binding. Binding reactions were assembled by combining bromodomains, liganded affinity beads, and test compounds in 1× binding buffer (17% SeaBlock, 0.33×PBS, 0.04% Tween 20, 0.02% BSA, 0.004% Sodium azide, 7.4 mM DTT). Test compounds were prepared as 1000× stocks in 100% DMSO. Kds were determined using an 11-point 3-fold compound dilution series with one DMSO control point. […] The bromodomain concentration in the eluates was measured by qPCR.

Compound	Kd [1] [nM]	Kd [2] [nM]
CCN(CCCCCCCCNC(=O)C[C@@H]1N=C(c2ccc(Cl)cc2)c2c(sc(C)c2C)-n2c(C)nnc21)CCOc1ccc(C(=O)c2c(-c3ccc(O)cc3)sc3cc(O)ccc23)cc1 [I-2, (S)-2-(4-(4-chlorophenyl)-2,3,9-trimethyl-6H-thieno[3,2-f][1,2,4]triazolo[4,3-a][1,4]diazepin-6-yl)-N-(8-(ethyl(2-(4-(6-hydroxy-2-(4-hydroxyphenyl)benzo[b]thiophene-3-carbonyl)phenoxy)ethyl)amino)octyl)acetamide]	50 to 500	< 50
CCN(CCOCCOCCNC(=O)C[C@@H]1N=C(c2ccc(Cl)cc2)c2c(sc(C)c2C)-n2c(C)nnc21)CCOc1ccc(C(=O)c2c(-c3ccc(O)cc3)sc3cc(O)ccc23)cc1 [I-3, (S)-2-(4-(4-chlorophenyl)-2,3,9-trimethyl-6H-thieno[3,2-f][1,2,4]triazolo[4,3-a][1,4]diazepin-6-yl)-N-(2-(2-(2-(ethyl(2-(4-(6-hydroxy-2-(4-hydroxyphenyl)benzo[b]thiophene-3-carbonyl)phenoxy)ethyl)amino)ethoxy)ethoxy)ethyl) acetamide]	< 50	< 50
